{"source": "patent US10653173B2", "about": "“Method for masking unpleasant taste” (Analyticon Discovery GmbH, priority 2015, dated 2020)", "key": {"[1]": {"details": "cited from earlier work"}, "[2]": {"test_system": "human bitter receptor cells", "assay": "In-vitro assay: intracellular calcium mobilisation (Fluo-4 AM) in human bitter receptor cell line stimulated with saccharin", "format": "cell-based", "details": "human taste cells stimulated with 1 mM saccharin, fluorometric detection, 0.1-25 μM substance; read-out: IC50 (average inhibitory concentration of the antagonist)", "experimental": "Human bitter receptor cells were established, and the activation of these cells was quantified in order to detect, by means of a cell-based test system, natural substances which reduce the bitterness of bitter principles. The change of the intracellular […] level was measured for quantitation of the activation of bitter receptor cells. In order to detect substances with inhibitory activity, a high-throughput cell-based in-vitro measurement system was established. […] The modulation of the intracellular […] level of the bitter receptor cells was quantitated by means of the […] fluorescence dye Fluo-4 AM in a microplate reader. […] The quantity of mobilised calcium may be quantitated by means of fluorescence, which increases in proportion with the concentration of calcium. […] 24 hours after seeding, the cells were dyed with 4 μM of the calcium-sensitive fluorescence dye Fluo-4 AM in HBSS (Hank's Balanced Salt Solution) buffer, and the mobilisation of calcium in living cells was measured in the microplate reader (FlexStation® […], Molecular Devices). […] The mobilisation of calcium was measured in the microplate reader at 37° C. The mobilisation of calcium was quantitated as the change of fluorescence (dF) after the addition of the substance, taking into account the basal fluorescence (F0) as dF/F0. […]"}, "[3]": {"assay": "Sensory panel: taste of combination with saccharin", "format": "in vivo, human", "details": "10 μM with 80 ppm saccharin, pH neutral", "experimental": "The sensory evaluation of the samples was performed by a team of five experienced assessors. The results may be taken from the following Table 3: [table]"}, "[4]": {"assay": "Sensory panel: taste of combination with acesulfame-K", "format": "in vivo, human", "details": "25 μM with 150 ppm acesulfame-K, pH neutral", "experimental": "The sensory evaluation of the samples was performed by a team of five experienced assessors. The results may be taken from the following Table 4: [table]"}, "[5]": {"assay": "Sensory panel: taste modulation of green tea", "format": "in vivo, human", "details": "vs 0.5% ethanol in tea", "experimental": "The sensory evaluation of the samples was performed by a team of five experienced assessors. Details may be taken from the following Table 6: [table]"}, "[6]": {"assay": "Sensory panel: taste modulation of grapefruit juice", "format": "in vivo, human", "experimental": "The sensory evaluation of the samples was performed by a team of five experienced assessors. Details may be taken from the following Table 7: [table]"}, "[7]": {"assay": "Sensory panel: taste modulation of a potassium chloride solution", "format": "in vivo, human", "details": "50 μM, pH neutral, 1,500 mg KCl in 100 ml water", "experimental": "The sensory evaluation of the samples was performed by a team of five experienced assessors. Details may be taken from the following Table 9: [table]"}}}
{"smiles": "C=C1C[C@@]23CC[C@H]4[C@@](C)(CCC[C@@]4(C)C(=O)O[C@@H]4O[C@H](CO)[C@@H](O)[C@H](O)[C@H]4O)[C@@H]2CC[C@]1(O[C@@H]1O[C@H](CO)[C@@H](O)[C@H](O)[C@H]1O[C@@H]1O[C@H](CO)[C@@H](O)[C@H](O)[C@H]1O)C3", "note": "[stevioside]", "values": [{"measurement": "Daily uptake considered harmless", "setting": "[1]", "value": "up to 4 mg per kilogramme of bodyweigh"}]}
{"smiles": "CC(C)c1ccc2c(c1)CC[C@H]1[C@](C)(C(=O)O)CCC[C@]21C", "note": "[dehydroabietic acid]", "values": [{"measurement": "IC50", "setting": "[2]", "value": 1700, "unit": "nM"}, {"measurement": "Evaluation (taste with saccharin)", "setting": "[3]", "value": "Slightly bitter aftertaste"}, {"measurement": "Evaluation (taste with acesulfame-K)", "setting": "[4]", "value": "No bitter taste present any more"}, {"measurement": "Evaluation (taste of green tea)", "setting": "[5]; 25 μM in Green tea", "value": "Slightly bitter taste that quickly fades"}, {"measurement": "Evaluation (taste of green tea)", "setting": "[5]; 50 μM in Green tea", "value": "As in 25 μM, but less astringent"}, {"measurement": "Bitter taste of freshly squeezed grapefruit juice", "setting": "[6]", "value": "significant reduction of the bitter taste without negatively influencing the fruit aroma and the refreshing tartness"}, {"measurement": "Evaluation (taste of potassium chloride solution)", "setting": "[7]", "value": "Less bitter than the comparison sample"}]}
